# Assay results from patent US10159640B2, “Prebiotic oral care compositions containing amino acids” (COLGATE-PALMOLIVE COMPANY, priority 2013, dated 2018).
# Tests used:
# Assay type in all cases: cell-based
# [1] = tested on: Porphyromonas gingivalis; experiment: Biofilm growth assay in BHI, crystal violet; conditions: control = 1
# Protocol: (§1) The increase in biofilm formation of the tested bacteria in response to selected compounds (Met-Pro, Phe-Glu) was investigated by setting up biofilm growth assays in a nutritionally rich medium (brain heart infusion broth (BHI), Oxoid), over 48 hours. Late exponential growth phase liquid cultures were prepared by transferring the respective bacterium from blood agar plates to BHI and overnight incubation at 37° C. in an anaerobic atmosphere for A. viscosus, V. parvula, F. nucleatum, P. gingivalis, P. intermedia, T. forsythia, A. naeslundii, and C. sputigena, and in a 5% CO2 environment for S. salivarius, S. sanguinis, S. mitis, A. actinomycetemcomitans, S. mutans, and S. gordonii. Overnight cultures were transferred to BHI and adjusted to a concentration of 1×10^7 CFU/ml by measuring the optical density at 600 nm (OD600) (BioRad SmartSpec 3000). For each strain, 200 μl of the bacterial suspension was added to a 96-well plate containing 20 μl of the respective di-peptides. Final concentrations of the di-peptides were set to 5, 10, 20 and 25 μmol/ml. […] Additionally, for each bacterium tested, a background control, to correct for background staining, was added. This background control contained the bacterium tested and 0.03 weight % chlorhexidine, as an antiseptic. Plates were incubated as previously described. After 48 hrs the supernatant was removed from the wells of the plates. The wells were washed twice with 1×100 μL PBS (phosphate buffered saline), fixed for 20 minutes with 96% vol. ethanol (96% vol. solution in water) and the biofilm retained at the bottom of the wells was stained with 1 weight % crystal violet (1 weight % solution in water). The bound dye was dissolved with 5% vol. acetic acid (5% vol. solution in water). Quantification of the stained biofilm was performed by measuring the absorbance at 630 nm using a Multiskan Ascent microplate reader (Thermo Scientific).
# (§2) The experiment was carried out on three different days (thus providing 3 biological replicas) and each day the experiment was carried out in quadruple (thus providing 4 technical replicas) for each combination of bacterium with dipeptide and for each control. For each day and for each combination, the average (mean) of the values obtained (as detailed above) for the four technical replicas was calculated to provide a single value for each combination on each day. The values shown in Tables 7 to 8, below, are the average (mean) of the three single values obtained for each combination of bacterium with dipeptide.
# [2] = tested on: Streptococcus salivarius; experiment: Biofilm growth assay in BHI, crystal violet; conditions: control = 1
# Protocol: as §1, §2
# [3] = tested on: Streptococcus sanguinis; experiment: Biofilm growth assay in BHI, crystal violet; conditions: control = 1
# Protocol: as §1, §2
# [4] = tested on: Capnocytophaga sputigena; experiment: Biofilm growth assay in BHI, crystal violet; conditions: control = 1
# Protocol: as §1, §2
# [5] = tested on: Veillonella parvula; experiment: Biofilm growth assay in BHI, crystal violet; conditions: control = 1
# Protocol: as §1, §2
# [6] = tested on: Prevotella intermedia; experiment: Biofilm growth assay in BHI, crystal violet; conditions: control = 1
# Protocol: as §1, §2
# [7] = tested on: Streptococcus mitis; experiment: Biofilm growth assay in BHI, crystal violet; conditions: control = 1
# Protocol: as §1, §2
# [8] = tested on: Streptococcus gordonii; experiment: Biofilm growth assay in BHI, crystal violet; conditions: control = 1
# Protocol: as §1, §2
# [9] = tested on: Streptococcus sanguinis; experiment: Extent of growth, growth curves in BHI; conditions: control = 1
# Protocol: (§3) The extent of growth of the tested bacteria in response to selected compounds (Met-Pro, Phe-Glu) was investigated by setting up growth curves in a nutritionally rich medium (brain heart infusion broth (BHI), Oxoid), over 48 hours. Late exponential growth phase liquid cultures were prepared by transferring the respective bacterium from blood agar plates to BHI and overnight incubation at 37° C. in an anaerobic atmosphere for A. viscosus, V. parvula, F. nucleatum, P. gingivalis, P. intermedia, T. forsythia, A. naeslundii, and C. sputigena, and in a 5% CO2 environment for S. salivarius, S. sanguinis, S. mitis, A. actinomycetemcomitans, S. mutans, S. sobrinus and S. gordonii. Overnight cultures were transferred to BHI and adjusted to a concentration of 1×10^7 CFU/ml (colony forming units per ml) by measuring the optical density at 600 nm (OD600) (BioRad SmartSpec 3000). For each strain, 200 μl of the bacterial suspension was added to a 96-well plate containing 20 μl of the respective di-peptides. Final concentrations of the di-peptides were set to 5, 10, 20 and 25 μmol/ml. […] Plates were incubated as previously described.
# (§4) For each combination of bacterium/dipeptide, and for each of their respective controls (i.e. the particular bacterium in the nutritionally rich medium with no dipeptide), the optical density was measured at 630 nm (OD630) at 0 h, 24 h and 48 h (Thermo Scientific Multiskan Ascent). Additionally, the OD630 for combinations of bacterium/dipeptide grown in a 5% CO2 environment were also measured every hour between 0 h and 9 h.
# as §2, with “replicas) and on each day” for “replicas) and each day”, “in Tables 5 to 6,” for “in Tables 7 to 8,”, “5 to 6, below, are” for “7 to 8, below, are”
# [10] = tested on: Prevotella intermedia; experiment: Extent of growth, growth curves in BHI; conditions: control = 1
# Protocol: as §3, §4
# as §2, with “replicas) and on each day” for “replicas) and each day”, “in Tables 5 to 6,” for “in Tables 7 to 8,”, “5 to 6, below, are” for “7 to 8, below, are”
# [11] = tested on: beneficial oral bacteria and pathogenic oral bacteria; experiment: Biofilm growth, whole panel: prebiotic effect; conditions: threshold value of 1.6
# Protocol: Substrates that were able to increase the biofilm mass of at least one of the above beneficial bacteria while not or only minimally increasing the biofilm mass of the pathogenic bacteria are considered to be prebiotic compounds.
# as §1, §2
# This value was selected in order to exclude low-stimulating metabolites and avoid false positive results.
substance,measurement,setting,value
Met-Pro,biofilm growth: OD 630 nm (crystal violet) at 48 hrs divided by OD of control,[1]; 5 μmol/ml,0.6831
same,biofilm growth: OD 630 nm (crystal violet) at 48 hrs divided by OD of control,[1]; 10 μmol/ml,0.7344
same,biofilm growth: OD 630 nm (crystal violet) at 48 hrs divided by OD of control,[1]; 20 μmol/ml,0.8922
same,biofilm growth: OD 630 nm (crystal violet) at 48 hrs divided by OD of control,[1]; 25 μmol/ml,0.4990
same,biofilm growth: OD 630 nm (crystal violet) at 48 hrs divided by OD of control,[2]; 5 μmol/ml,0.8003
same,biofilm growth: OD 630 nm (crystal violet) at 48 hrs divided by OD of control,[2]; 10 μmol/ml,0.9847
same,biofilm growth: OD 630 nm (crystal violet) at 48 hrs divided by OD of control,[2]; 20 μmol/ml,1.0385
same,biofilm growth: OD 630 nm (crystal violet) at 48 hrs divided by OD of control,[2]; 25 μmol/ml,1.4734
same,biofilm growth: OD 630 nm (crystal violet) at 48 hrs divided by OD of control,[3]; 5 μmol/ml,1.1768
same,biofilm growth: OD 630 nm (crystal violet) at 48 hrs divided by OD of control,[3]; 10 μmol/ml,1.7015
same,biofilm growth: OD 630 nm (crystal violet) at 48 hrs divided by OD of control,[3]; 20 μmol/ml,2.1767
same,biofilm growth: OD 630 nm (crystal violet) at 48 hrs divided by OD of control,[3]; 25 μmol/ml,1.6580
same,biofilm growth: OD 630 nm (crystal violet) at 48 hrs divided by OD of control,[4]; 5 μmol/ml,0.2411
same,biofilm growth: OD 630 nm (crystal violet) at 48 hrs divided by OD of control,[4]; 10 μmol/ml,0.1949
same,biofilm growth: OD 630 nm (crystal violet) at 48 hrs divided by OD of control,[4]; 20 μmol/ml,0.1660
same,biofilm growth: OD 630 nm (crystal violet) at 48 hrs divided by OD of control,[4]; 25 μmol/ml,0.0138
same,biofilm growth: OD 630 nm (crystal violet) at 48 hrs divided by OD of control,[5]; 5 μmol/ml,0.2845
same,biofilm growth: OD 630 nm (crystal violet) at 48 hrs divided by OD of control,[5]; 10 μmol/ml,0.2886
same,biofilm growth: OD 630 nm (crystal violet) at 48 hrs divided by OD of control,[5]; 20 μmol/ml,0.1745
same,biofilm growth: OD 630 nm (crystal violet) at 48 hrs divided by OD of control,[5]; 25 μmol/ml,0.2121
same,biofilm growth: OD 630 nm (crystal violet) at 48 hrs divided by OD of control,[6]; 5 μmol/ml,1.2520
same,biofilm growth: OD 630 nm (crystal violet) at 48 hrs divided by OD of control,[6]; 10 μmol/ml,0.9773
same,biofilm growth: OD 630 nm (crystal violet) at 48 hrs divided by OD of control,[6]; 20 μmol/ml,0.2095
same,biofilm growth: OD 630 nm (crystal violet) at 48 hrs divided by OD of control,[6]; 25 μmol/ml,0.1148
same,biofilm growth: OD 630 nm (crystal violet) at 48 hrs divided by OD of control,[7]; 5 μmol/ml,1.3974
same,biofilm growth: OD 630 nm (crystal violet) at 48 hrs divided by OD of control,[7]; 10 μmol/ml,1.4008
same,biofilm growth: OD 630 nm (crystal violet) at 48 hrs divided by OD of control,[7]; 20 μmol/ml,0.2959
same,biofilm growth: OD 630 nm (crystal violet) at 48 hrs divided by OD of control,[7]; 25 μmol/ml,0.0464
same,biofilm growth: OD 630 nm (crystal violet) at 48 hrs divided by OD of control,[8]; 5 μmol/ml,1.4212
same,biofilm growth: OD 630 nm (crystal violet) at 48 hrs divided by OD of control,[8]; 10 μmol/ml,1.8572
same,biofilm growth: OD 630 nm (crystal violet) at 48 hrs divided by OD of control,[8]; 20 μmol/ml,1.6395
same,biofilm growth: OD 630 nm (crystal violet) at 48 hrs divided by OD of control,[8]; 25 μmol/ml,1.4372
same,extent of growth: maximal OD630 over 48 hr divided by maximal OD of control,[9]; 5 μmol/ml,0.9059
same,extent of growth: maximal OD630 over 48 hr divided by maximal OD of control,[9]; 10 μmol/ml,0.9070
same,extent of growth: maximal OD630 over 48 hr divided by maximal OD of control,[9]; 20 μmol/ml,0.6852
same,extent of growth: maximal OD630 over 48 hr divided by maximal OD of control,[9]; 25 μmol/ml,0.5011
same,extent of growth: maximal OD630 over 48 hr divided by maximal OD of control,[10]; 5 μmol/ml,0.9177
same,extent of growth: maximal OD630 over 48 hr divided by maximal OD of control,[10]; 10 μmol/ml,0.9742
same,extent of growth: maximal OD630 over 48 hr divided by maximal OD of control,[10]; 20 μmol/ml,0.3193
same,extent of growth: maximal OD630 over 48 hr divided by maximal OD of control,[10]; 25 μmol/ml,0.2336
same,prebiotic effects (biofilm growth),[11]; 10 μmol/ml,exhibited prebiotic effects
same,prebiotic effects (biofilm growth),[11]; 20 μmol/ml,exhibited prebiotic effects
same,prebiotic effects (biofilm growth),[11]; 25 μmol/ml,exhibited prebiotic effects
